Data: patent publication US12042523B2, “Compositions and methods for managing or improving bone disorders, joint disorders, cartilage disorders, or a combination thereof” (Unigen, Inc., priority 2014, dated 2024)
Marks after values point to notes of the source that are not given here.

How the values were obtained:
Type in all cases: in vivo, rat
[1] = tested on: MIA-induced osteoarthritis in Sprague-Dawley rats; assay: Bone histomorphometry (Micro CT) in therapeutic MIA induced osteoarthritis model
Protocol: Male Sprague-Dawley (SD) rats weighing 170˜230 g (6 weeks of age) were purchased and acclimated for one week. […] Anesthetized rats were injected with 0.8 mg of MIA in 50 μl saline solution into the intra-articular pocket. One week after MIA induction, samples were administrated daily with gastric tube for 6 weeks. Bone histomorphometry was evaluated on both femur and tibia per knee joint in rats from the MIA-induced osteoarthritis model by Micro CT scan using an Inveon™ unit (Siemens Healthcare USA, Inc., Pennsylvania, USA) at Korea Basic science institute, Ochang, Korea. BMD was used as an indicator of osteoporosis and fracture risk; BV/TV as an indicator of trabecular bone volume refers to the ratio of the trabecular bone volume to the total volume; BS/BV as an indicator of trabecular turnover refers to the ratio of the trabecular bone surface to the trabecular bone volume of a region of interest.

[2] = tested on: MIA-induced osteoarthritis in Sprague-Dawley rats; assay: Bone histomorphometry (Micro CT) in concurrent MIA-induced osteoarthritis model
Protocol: Male Sprague-Dawley (SD) rats weighing 170˜230 g (6 weeks of age) were purchased and acclimated for one week. […] Anesthetized rats were injected with 0.8 mg of MIA in 50 μl saline solution into the intra-articular pocket at 1 hour after sample treatments. And then samples were administrated daily with gastric tube for 6 weeks. Bone histomorphometry was evaluated on both femur and tibia per knee joint by Micro CT scan using an Inveon™ unit (Siemens Healthcare USA, Inc., Pennsylvania, USA) at Korea Basic science institute, Ochang, Korea. BV/TV as an indicator of trabecular bone volume is the ratio of the trabecular bone volume to the total volume. BMD used as an indicator of osteoporosis and fracture risk. Therefore, we checked those markers whether GM has the efficacy on the osteoporosis. […] Anesthetized rats were injected with 0.8 mg of MIA in 50 μl saline solution into the intra-articular pocket at 1 hour after sample treatments. Samples were administrated daily with gastric tube for 6 weeks. Bone histomorphometry was evaluated on both femur and tibia per knee joint by Micro CT scan using an Inveon™ unit (Siemens Healthcare USA, Inc., Pennsylvania, USA) at Korea Basic science institute, Ochang, Korea. BV/TV as an indicator of trabecular bone volume is the ratio of the trabecular bone volume to the total volume. BMD used as an indicator of osteoporosis and fracture risk.

[3] = tested on: MIA-induced osteoarthritis in Sprague-Dawley rats; assay: Pain sensitivity (paw withdrawal / compression threshold, Randall-Salitto) in MIA-induced OA model; conditions: Diclofenac 10, UP1306 400, UP446 250, Composition 650 mg/kg; for Compression threshold (Mean ± SD): oral
Protocol: Animals were provided with fresh water and rodent chow diet # T2018 (Harlan Teklad, 370W, Kent, WA, USA) ad libitum and were housed in a temperature-controlled room (22.2° C.) on a 12 h light-dark cycle.

[4] = tested on: MIA-induced osteoarthritis in Sprague-Dawley rats; assay: Histopathology of femorotibial joint, modified Mankin score, MIA-induced OA model
Protocol: Treatment started a week before MIA injection. […] The standardized blends for each treatment groups are defined as UP446=1A:4S, UP1306=1A:2M and the composition at the given dosage=0.282A:0.308S:0.410M where “A”, “S” and “M” stands for acacia, scutellaria and moms, respectively. On the induction day, isoflurane (Lot #B66H15A, Piramal Enterprise Ltd. Andhra Pradesh, India) anesthetized rats were injected with 0.8 mg of MIA (Lot #A0352046, Acros Organics, New Jersey, USA) in 50 μL saline solution into the intra-articular pocket of left femorotibial (knee) joint using 26 G needle an hour after treatment. Normal control rats were injected with an equal volume of saline. […] Body weights were measured once a week to calculate the respective weekly dosage of each group. The merit of combining UP1306 and UP446 was then evaluated using the Colby's equation (Colby, 1967). Pain sensitivity percent inhibition values were used to determine the calculated efficacy values and compared to the observed percent inhibition values of the composition.
At necropsy, animals were asphyxiated with CO2 and the femorotibial joint was carefully dissected out, fixed in 10% buffered formalin and sent to Nationwide Histology (Veradale, WA, USA) for further histopathology analysis. The fixed specimens were then decalcified with Calci-Clear Rapid for 1 and a half days and embedded in paraffin. Standardized 5 μm serial sections were obtained at the medial and lateral midcondylar level in the sagittal plane and were stained with hematoxylin and eosin (HE) and Safranin O-fast green to enable evaluation of proteoglycan content. A modified Mankin system (Mankin et al., 1981) was used to score structural and cellular alterations of articular components as indications of disease progression and/or treatment efficacy. The histological analysis was conducted by a certified Pathologist at Nationwide Histology.

[5] = treatment from one week after MIA, daily 6 weeks, Diclofenac 10 mg/kg, GM 500 mg/kg, mean ± SD
[6] = MIA 1 hour after sample treatment, daily 6 weeks, Diclofenac 10 mg/kg, GM 500 mg/kg, mean ± SD
[7] = MIA 0.8 mg/joint, Diclofenac 10, UP1306 400, UP446 250, Composition 650 mg/kg

**Q.** What does the source list for `O=C(O)Cc1ccccc1Nc1c(Cl)cccc1Cl` [Diclofenac]?
**A.** BV/TV compared with vehicle group ([1]; therapeutic MIA model): decreasing tendency; BMD (mg/cm3) [1, 5]: 896.2 ± 29.4 mg/cm3; BS/BV [1, 5]: 9.11 ± 1.41; BV/TV (%) [1, 5]: 65.35 ± 7.75%; BMD (mg/cm3) [2, 6]: 982.3 ± 19.44 mg/cm3; BV/TV (%) [2, 6]: 71.89 ± 5.43%; BMD compared with vehicle group ([2]; concurrent MIA model): significantly increased; BV/TV compared with vehicle group ([2]; concurrent MIA model): tendency to increase; Percent change of vehicle, Pain sensitivity inhibition ([3]; Baseline): 0.9%; Compression threshold (Mean ± SD) ([3]; Baseline): 244.1 ± 3.8; Percent change of vehicle, Pain sensitivity inhibition ([3]; Week-1): 40.4* %; Compression threshold (Mean ± SD) ([3]; Week-1): 190.8 ± 1.1; Percent change of vehicle, Pain sensitivity inhibition ([3]; Week-2): 28.8* %; Compression threshold (Mean ± SD) ([3]; Week-2): 171.8 ± 0.6; Percent change of vehicle, Pain sensitivity inhibition ([3]; Week-3): 31.2* %; Compression threshold (Mean ± SD) ([3]; Week-3): 170.1 ± 2.2; Percent change of vehicle, Pain sensitivity inhibition ([3]; Week-4): 30.8* %; Compression threshold (Mean ± SD) ([3]; Week-4): 171.6 ± 0.6; Percent change of vehicle, Pain sensitivity inhibition ([3]; Week-5): 31.0* %; Compression threshold (Mean ± SD) ([3]; Week-5): 170.9 ± 1.1; reduction in overall structural abnormality ([4]; AM 400, UP446 250, AU 650, Diclofenac 10 mg/kg): 51.4%; reduction in matrix GAG loss (Safranin O) ([4]; Diclofenac 10, AM 400, UP446 250, AU 650 mg/kg): 46.0%; Bone at Articular surfaces (modified Mankin score 0-6) [4, 7]: 0.70 ± 0.24; Fibrovascular proliferation (modified Mankin score 0-6) [4, 7]: 1.55 ± 0.69; Inflammation/ Cellular infiltration (modified Mankin score 0-6) [4, 7]: 0.55 ± 0.15; Matrix GAGs (modified Mankin score 0-6) [4, 7]: 1.44 ± 0.38; Structural abnormality (modified Mankin score 0-6) [4, 7]: 1.23 ± 0.36
